Assay results published in ChEMBL document CHEMBL4419168, “Substituted n-([1,1''-biphenyl]-3-yl)-[1,1''-biphenyl]-3-carboxamide analogs as inhibitors for beta-catenin/b-cell lymphoma 9 interactions” (2018).

Columns and labels:
MDA-MB-231 = assay: Cytotoxicity in human MDA-MB-231 cells assessed as reduction in cell viability incubated for 72 hrs by MTS assay; assay type: functional, cell-based; conditions: for IC50: MDA-MB-231, 72 h
Homo sapiens = species: Homo sapiens; assay: Selectivity index, ratio of Ki for inhibition of C-terminal 6x-histidine tagged beta-catenin (138 to 686 residues) (unknown origin) expressed in Escherichia coli BL21 DE3/N-terminally biotinylated human E-cadherin (824 to 877 residues) protein-protein interactions by Alpha-screen assay to Ki for …
[1] = target: T1, beta-catenin-B-cell lymphoma 9 protein complex (Homo sapiens, UniProt P35222); assay: Inhibition of C-terminal 6x-histidine tagged beta-catenin (138 to 686 residues) (unknown origin) expressed in Escherichia coli BL21 DE3 /human BCL9 (350 to 375 residues) protein-protein interactions incubated for 1 hr by Alpha-screen assay
T1 sequence (P35222 whole entry): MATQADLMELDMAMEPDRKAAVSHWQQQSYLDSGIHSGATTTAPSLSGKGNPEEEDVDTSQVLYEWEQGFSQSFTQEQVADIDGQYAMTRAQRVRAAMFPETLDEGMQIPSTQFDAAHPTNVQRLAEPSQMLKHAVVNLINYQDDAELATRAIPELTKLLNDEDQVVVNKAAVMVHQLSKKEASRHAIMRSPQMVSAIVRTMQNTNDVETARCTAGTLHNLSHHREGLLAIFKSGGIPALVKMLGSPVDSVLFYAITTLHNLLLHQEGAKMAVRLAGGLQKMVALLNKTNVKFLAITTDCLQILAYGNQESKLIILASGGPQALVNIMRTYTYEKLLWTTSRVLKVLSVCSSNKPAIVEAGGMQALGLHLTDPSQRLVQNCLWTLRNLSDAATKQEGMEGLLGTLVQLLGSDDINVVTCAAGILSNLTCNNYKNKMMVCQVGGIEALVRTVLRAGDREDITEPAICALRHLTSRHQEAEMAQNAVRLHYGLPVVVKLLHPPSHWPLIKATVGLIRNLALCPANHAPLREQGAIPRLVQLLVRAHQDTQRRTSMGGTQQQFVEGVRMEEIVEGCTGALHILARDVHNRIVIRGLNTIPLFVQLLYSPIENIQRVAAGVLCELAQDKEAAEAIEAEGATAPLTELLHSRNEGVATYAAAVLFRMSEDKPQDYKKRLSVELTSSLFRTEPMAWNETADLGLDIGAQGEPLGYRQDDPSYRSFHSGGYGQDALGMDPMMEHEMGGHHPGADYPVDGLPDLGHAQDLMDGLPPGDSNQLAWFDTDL
T1 sequence (O00512 whole entry): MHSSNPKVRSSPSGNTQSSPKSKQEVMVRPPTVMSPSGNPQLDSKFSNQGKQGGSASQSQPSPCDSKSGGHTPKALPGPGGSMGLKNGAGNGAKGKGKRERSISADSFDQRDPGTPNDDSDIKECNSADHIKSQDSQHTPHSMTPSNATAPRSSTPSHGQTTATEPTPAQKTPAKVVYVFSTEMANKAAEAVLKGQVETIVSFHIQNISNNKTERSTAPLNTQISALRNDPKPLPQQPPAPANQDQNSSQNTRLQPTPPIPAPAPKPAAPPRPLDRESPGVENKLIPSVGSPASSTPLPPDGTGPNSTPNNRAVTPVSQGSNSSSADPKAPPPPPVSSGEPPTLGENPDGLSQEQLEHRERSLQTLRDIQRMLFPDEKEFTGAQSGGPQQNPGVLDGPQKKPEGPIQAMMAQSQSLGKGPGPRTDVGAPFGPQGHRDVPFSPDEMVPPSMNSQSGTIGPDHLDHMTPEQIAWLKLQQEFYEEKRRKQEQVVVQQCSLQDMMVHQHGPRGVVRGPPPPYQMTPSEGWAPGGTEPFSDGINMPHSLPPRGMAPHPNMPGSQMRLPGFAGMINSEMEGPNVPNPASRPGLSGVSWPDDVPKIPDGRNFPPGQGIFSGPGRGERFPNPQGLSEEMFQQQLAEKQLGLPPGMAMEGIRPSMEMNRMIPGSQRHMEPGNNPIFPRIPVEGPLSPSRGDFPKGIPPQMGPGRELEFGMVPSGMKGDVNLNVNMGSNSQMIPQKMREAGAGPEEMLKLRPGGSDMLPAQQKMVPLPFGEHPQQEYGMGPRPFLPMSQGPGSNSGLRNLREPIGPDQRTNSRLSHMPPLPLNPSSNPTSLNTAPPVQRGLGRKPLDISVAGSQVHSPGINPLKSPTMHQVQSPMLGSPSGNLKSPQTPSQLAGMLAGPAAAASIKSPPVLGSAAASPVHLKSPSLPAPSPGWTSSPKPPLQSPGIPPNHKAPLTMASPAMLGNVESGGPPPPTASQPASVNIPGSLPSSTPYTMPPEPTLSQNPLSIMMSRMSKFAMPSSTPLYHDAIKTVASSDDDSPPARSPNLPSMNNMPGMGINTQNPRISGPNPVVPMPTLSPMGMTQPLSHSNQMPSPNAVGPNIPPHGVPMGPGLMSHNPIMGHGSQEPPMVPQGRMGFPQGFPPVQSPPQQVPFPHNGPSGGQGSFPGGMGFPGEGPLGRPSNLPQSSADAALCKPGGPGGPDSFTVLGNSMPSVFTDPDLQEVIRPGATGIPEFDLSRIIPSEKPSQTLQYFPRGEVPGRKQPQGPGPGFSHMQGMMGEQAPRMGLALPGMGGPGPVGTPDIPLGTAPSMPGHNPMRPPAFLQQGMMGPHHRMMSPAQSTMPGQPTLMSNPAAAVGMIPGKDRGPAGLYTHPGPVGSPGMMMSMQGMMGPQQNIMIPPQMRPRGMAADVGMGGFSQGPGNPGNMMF

MCF-10A = assay: Cytotoxicity in human MCF10A cells assessed as reduction in cell viability incubated for 72 hrs by MTS assay; assay type: cell-based
A549 = assay: Cytotoxicity in human A549 cells assessed as reduction in cell viability incubated for 72 hrs by MTS assay; assay type: functional, cell-based; conditions: A549, 72 h
HCT-116 = assay: Cytotoxicity in human HCT116 cells assessed as reduction in cell viability incubated for 72 hrs by MTS assay; assay type: functional, cell-based; conditions: for IC50: HCT-116, 72 h
SW480 [2] = assay: Cytotoxicity in human SW480 cells assessed as reduction in cell viability incubated for 72 hrs by MTS assay; assay type: functional, cell-based; conditions: for IC50: SW480, 72 h
SW480 [3] = assay: Inhibition of anchorage-independent growth in human SW480 cells incubated fro 18 days by crystal violet staining based assay; assay type: functional, cell-based
HT-29 = assay: Cytotoxicity in human HT-29 cells assessed as reduction in cell viability incubated for 72 hrs by MTS assay; assay type: functional, cell-based; conditions: for IC50: HT-29, 72 h
[4] = target: beta-catenin-B-cell lymphoma 9 protein complex (Homo sapiens, UniProt P35222, D145A); assay: Inhibition of inhibited beta-catenin D145A mutant (unknown origin) expressed in Escherichia coli BL21 DE3 /human BCL9 (350 to 375 residues) protein-protein interactions by Alpha-screen assay
[5] = target: beta-catenin-B-cell lymphoma 9 protein complex (Homo sapiens, UniProt P35222, D145A/E155A); assay: Inhibition of inhibited beta-catenin D145A/E155A mutant (unknown origin) expressed in Escherichia coli BL21 DE3 /human BCL9 (350 to 375 residues) protein-protein interactions by Alpha-screen assay

Structure (SMILES) | IC50 (MDA-MB-231) [µM] | Ratio Ki (Homo sapiens) | Ki [1] [µM] | IC50 (HCT-116) [µM] | IC50 (SW480 [2]) [µM] | also measured
O=C(Nc1ccc(O[C@H]2CCNC2)c(-c2ccc(F)cc2)c1)c1ccc(O[C@H]2CCNC2)c(-c2ccc(F)cc2)c1 | 7.05 to 8.35 | 35 | 6.65 | 8.23 | 9.86 | IC50 (MCF-10A): 19.9 µM; IC50 (A549): 18.8 µM
NCCOc1ccc(NC(=O)c2ccc(OCCN)c(-c3ccc(F)cc3)c2)cc1-c1ccc(F)cc1 |  |  | 11.6 |  |  | 
O=C(Nc1ccc(O[C@H]2CCNC2)c(-c2ccc(F)cc2)c1)c1ccc(O[C@H]2CCNC2)c(-c2ccc3ccccc3c2)c1 | 220 |  |  |  |  | 
NCCOc1ccc(NC(=O)c2ccc(OCCN)c(-c3ccc(F)c(F)c3)c2)cc1-c1ccc(F)cc1 |  | 38 |  |  |  | 
O=C(Nc1ccc(O[C@H]2CCNC2)c(-c2ccc(F)cc2)c1)c1ccc(O[C@H]2CCNC2)c(-c2ccc(F)c(F)c2)c1 | 2.32 to 2.47 |  |  | 3.07 | 3.5 | inhibition (MDA-MB-231): Dose-dependent effect; IC50 (MCF-10A): 9.07 µM; inhibition (SW480 [3]): Dose-dependent effect; inhibition (HT-29): Dose-dependent effect; IC50 (HT-29): 2.97 µM; IC50 (A549): 8.79 µM; Ki [4]: 13.4 µM; Ki [5]: 96.6 µM; inhibition (HCT-116): Dose-dependent effect; inhibition (SW480 [2]): Dose-dependent effect
CC(C)c1cc2c(c(O)c1O)[C@@]1(C(=O)O)CCCC(C)(C)[C@@H]1CC2 [CARNOSIC ACID] |  | 73 |  | 8.67 | 10.5 | IC50 (HT-29): 20.2 µM
Cc1cc(C(=O)Nc2ccc(O[C@H]3CCNC3)c(-c3ccc(F)cc3)c2)ccc1O[C@H]1CCNC1 | 9.03 |  |  |  |  | 
O=C(NCCCC(=O)N1CCNCC1)c1ccc(-c2cc(C(=O)Nc3ccc(O[C@H]4CCNC4)c(-c4ccc(F)cc4)c3)ccc2O[C@H]2CCNC2)cc1 |  | 345 |  |  |  | 
O=C(Nc1ccc(O[C@H]2CCNC2)c(-c2ccc(F)c(F)c2)c1)c1ccc(O[C@H]2CCNC2)c(-c2ccc(F)c(F)c2)c1 |  | 30 | 8.71 |  |  | 
O=C(Nc1ccc(OC2CNC2)c(-c2ccc(F)cc2)c1)c1ccc(OC2CNC2)c(-c2ccc(F)c(F)c2)c1 |  | 16 |  |  |  | 
